≈ marks a conversion by molar mass, not a printed value. Entries after “also recorded” stand apart in the source; their conditions may differ. Where two headings read alike, the source gives them in different places.
What was measured:
[1] = cited from earlier work; for HLB value: hydrophilic-lipophilic balance of surfactant
TR146 buccal cell line [2] = experiment: Pre-formulation permeability of Piroxicam & permeation agent binary mixtures, TR146 cells on Transwell inserts; details: for % Cumulative Permeability (n = 3) 1 min / % Cumulative Permeability (n = 3) 2 min / % Cumulative Permeability (n = 3) 5 min / % Cumulative Permeability (n = 3) 15 min / % Cumulative Permeability (n = 3) 20 min / % Cumulative Permeability (n = 3) 30 min: Piroxicam 0.35 mg in donor
TR146 buccal cell line [3] = experiment: Permeability of Atenolol/permeation agent binary mixes (Table 11), TR146 cells on Transwell inserts; details: surfactants 1:1 molar ratio, PF127 and bile salt 2×CMC, citric acid 0.37-1 mg/ml
TR146 buccal cell line [4] = experiment: Permeability of reconstituted Piroxicam freeze-dried ODT, TR146 cells on Transwell inserts; assay type: in vitro ADME
TR146 buccal cell line [5] = experiment: Pre-formulation permeability of Carvedilol/permeation agent binary mixes, TR146 cells on Transwell inserts
TR146 buccal cell line [6] = experiment: Permeability of Famotidine/permeation agent binary mixes, TR146 cells on Transwell inserts
[7] = Measured pH of API/permeation agent mixtures and of dispersed ODTs; assay type: physicochemical
[8] = Theoretical percent ionized and un-ionized API at sample pH (Henderson-Hasselbach equation); assay type: physicochemical; details: for Calculated % ionized / Calculated % unionized: Piroxicam at sample pH
[9] = Physicochemical properties of model APIs and permeation agents (solubility, log P, pKa, HLB)
TR146 buccal cell line [10] = details: human, 1.74 mg/ml, pH 7
[11] = agent at 1:1 molar ratio to Piroxicam, CA after 20 and 30 minutes
[12] = agent at 1:1 molar ratio to Piroxicam, at 30 minutes
[13] = Piroxicam 0.7 mg/ml binary mixtures in distilled water, ^a after adjustment with 0.1M HCl

**Q.** Which results are given for `CCCCCCCCCCCCOS(=O)(=O)[O-].[Na+]` [SLS, Sodium Lauryl Sulfate]?
**A.** HLB value [1]: 40; effect on Piroxicam permeability vs control (TR146 buccal cell line [2]; [11]): increased; effect on Atenolol permeability vs control (TR146 buccal cell line [3]): non-statistically significant increase; effect on permeability of Piroxicam ODT vs control (TR146 buccal cell line [4]; 0.69% w/w and 3.49% w/w (PXM:SLS 5:1 and 1:1)): increased; permeability of 3.49% w/w sample compared to 0.69% w/w sample (TR146 buccal cell line [4]; Piroxicam ODT): marginally higher but statistically significant increase

**Q.** With `CCCCCCCCCCCCO[C@@H]1O[C@H](CO)[C@@H](O[C@H]2O[C@H](CO)[C@@H](O)[C@H](O)[C@H]2O)[C@H](O)[C@H]1O` [DDM, Dodecyl-B-D-Maltoside] as the compound, how does the HLB value [1] read?
**A.** The HLB value was 13.5.

**Q.** What about the “effect on Piroxicam permeability vs control” value (TR146 buccal cell line [2]; [11]) of the same compound?
**A.** Its value is “increased”.

**Q.** What about the “fold increase in Piroxicam percentage cumulative permeability vs control” value (TR146 buccal cell line [2]; [12]) of the same compound?
**A.** Its value is 2.6 fold.

**Q.** What about the “percentage cumulative permeability of Piroxicam” value (TR146 buccal cell line [2]; [12]) of the same compound?
**A.** The value was 25.60%.

**Q.** And the “effect on Carvedilol permeability vs control” value (TR146 buccal cell line [5]; PF127 at 2×CMC, other surfactants at 1:1 molar ratio)?
**A.** The value was “No significant effect”.

**Q.** What about the “effect on Atenolol permeability vs control” value (TR146 buccal cell line [3]) of the same compound?
**A.** The value was “no statistically significant difference”.

**Q.** What about the “difference in Famotidine permeability vs control” value (TR146 buccal cell line [6]; 1:1 molar ratio, at the 20 and 30 minute marks) of the same compound?
**A.** Its value is “no significant difference”.

**Q.** What about the “fold increase in Famotidine permeability vs control” value (TR146 buccal cell line [6]; 1:1 molar ratio, first 5 through 15 minutes) of the same compound?
**A.** Its value is 3 fold.

**Q.** Which “percentage cumulative permeability of Piroxicam” value (TR146 buccal cell line [2]; agent at 1×CMC, at 30 minutes) does the source give for `C[C@H](CCC(=O)[O-])[C@H]1CC[C@H]2[C@@H]3[C@H](O)C[C@@H]4C[C@H](O)CC[C@]4(C)[C@H]3C[C@H](O)[C@]12C.O.[Na+]` [sodium cholate hydrate, Sodium Cholate hydrate] here?
**A.** Its value is 39.52%.

**Q.** And the “percentage cumulative permeability of Piroxicam” value (TR146 buccal cell line [2]; agent at 2×CMC, at 30 minutes)?
**A.** Its value is 14.44%.

**Q.** And the “effect on Piroxicam permeability vs control” value (TR146 buccal cell line [2]; bile salt at 0.5 CMC)?
**A.** Its value is “slight, statistically non-significant increase”.

**Q.** And the “fold increase in Piroxicam permeability vs control” value (TR146 buccal cell line [2]; bile salt at 1 CMC, at 30 minutes)?
**A.** Its value is 4 fold.

**Q.** What about the “effect on Piroxicam permeability vs control” value (TR146 buccal cell line [2]; bile salt at 2 CMC, pH-adjusted using citric acid) of the same compound?
**A.** The value was “slight and statistically non-significant”.

**Q.** And the “fold increase in Piroxicam percentage cumulative permeability” value (TR146 buccal cell line [2]; bile salt at 2 CMC, at the first minute)?
**A.** Its value is 1.5 fold.

**Q.** And the “fold increase in Carvedilol percentage cumulative permeability vs control” value (TR146 buccal cell line [5]; at/after 30 minutes)?
**A.** Its value is about 2 fold.

**Q.** And the “effect on Atenolol permeability vs control” value (TR146 buccal cell line [3])?
**A.** The value was “no statistical difference”.

**Q.** And the “effect on permeability of Piroxicam in ODT” value (TR146 buccal cell line [4]; […] w/w, 0.5×CMC in aqueous dispersion)?
**A.** The value was “only slightly increased”.

**Q.** Which results are given for `CN1C(C(=O)Nc2ccccn2)=C(O)c2ccccc2S1(=O)=O` [Sample 1PXM, Piroxicam]?
**A.** % Cumulative Permeability (n = 3) 1 min (TR146 buccal cell line [2]): 0.08%; % Cumulative Permeability (n = 3) 2 min (TR146 buccal cell line [2]): 0.24%; % Cumulative Permeability (n = 3) 5 min (TR146 buccal cell line [2]): 0.96%; % Cumulative Permeability (n = 3) 15 min (TR146 buccal cell line [2]): 3.82%; % Cumulative Permeability (n = 3) 20 min (TR146 buccal cell line [2]): 5.89%; % Cumulative Permeability (n = 3) 30 min (TR146 buccal cell line [2]): 9.96%; pH [7, 13]: 5.30; Calculated % ionized [8]: 61.31%; Calculated % unionized [8]: 38.69%

**Q.** With `CN1C(C(=O)Nc2ccccn2)=C(O)c2ccccc2S1(=O)=O` [Sample 3PXM, Piroxicam] as the compound, how does the “% Cumulative Permeability (n = 3) 1 min” value (TR146 buccal cell line [2]) read?
**A.** Its value is 0.13%.

**Q.** What about the “% Cumulative Permeability (n = 3) 2 min” value (TR146 buccal cell line [2]) of the same compound?
**A.** Its value is 0.41%.

**Q.** And the “% Cumulative Permeability (n = 3) 5 min” value (TR146 buccal cell line [2])?
**A.** The value was 1.60%.

**Q.** What about the “% Cumulative Permeability (n = 3) 15 min” value (TR146 buccal cell line [2]) of the same compound?
**A.** Its value is 5.88%.

**Q.** What about the “% Cumulative Permeability (n = 3) 20 min” value (TR146 buccal cell line [2]) of the same compound?
**A.** The value was 7.91%.

**Q.** And the “% Cumulative Permeability (n = 3) 30 min” value (TR146 buccal cell line [2])?
**A.** The value was 11.24%.

**Q.** And the pH [7, 13]?
**A.** The pH was 6.64.

**Q.** What about the Calculated % ionized [8] of the same compound?
**A.** The Calculated % ionized was 97.20%.

**Q.** What about the Calculated % unionized [8] of the same compound?
**A.** The Calculated % unionized was 2.80%.

**Q.** For POE-(4)-sorbitan monolaurate [Tween 21], which “effect on Piroxicam permeability vs control” value (TR146 buccal cell line [2]; [11]) is on record?
**A.** Its value is “increased”.

**Q.** And the “fold increase in Piroxicam percentage cumulative permeability vs control” value (TR146 buccal cell line [2]; [12])?
**A.** The value was 2.1 fold.

**Q.** And the “percentage cumulative permeability of Piroxicam” value (TR146 buccal cell line [2]; [12])?
**A.** The value was 20.82%.

**Q.** What about the “effect on Famotidine permeability vs control” value (TR146 buccal cell line [6]) of the same compound?
**A.** The value was “Neither PF127 nor Tween 21 showed an enhancement; also recorded: no increase in Famotidine permeability was observed”.

**Q.** With `COc1ccccc1OCCNCC(O)COc1cccc2[nH]c3ccccc3c12` (stereo not shown) [Carvedilol] as the compound, how does the water solubility [1] read?
**A.** The water solubility was 4.44 µg/mL (≈ 10.9 µM).

**Q.** Which pKa [9] does the source give for `NCCCC[C@H](N)C(=O)O` [lysine, Lysine] here?
**A.** Its pKa is at least 5.

**Q.** What about the “effect on Piroxicam permeability” value (TR146 buccal cell line [2]; 1:3 and 1:6 molar ratios Piroxicam to counterion) of the same compound?
**A.** Its value is “no significant enhancement”.

**Q.** With `NC(N)=Nc1nc(CSCCC(N)=NS(N)(=O)=O)cs1` [Sample 1FAM, Famotidine] as the compound, how does the “% Cumulative Permeability (n = 3) 1 min” value (TR146 buccal cell line [6]; Famotidine […], 0.5 ml in donor, 1 min) read?
**A.** Its value is 0.32%.

**Q.** And the “% Cumulative Permeability (n = 3) 2 min” value (TR146 buccal cell line [6]; Famotidine […], 0.5 ml in donor, 2 min)?
**A.** The value was 0.84%.

**Q.** What about the “% Cumulative Permeability (n = 3) 5 min” value (TR146 buccal cell line [6]; Famotidine […], 0.5 ml in donor, 5 min) of the same compound?
**A.** The value was 2.09%.

**Q.** And the “% Cumulative Permeability (n = 3) 15 min” value (TR146 buccal cell line [6]; Famotidine […], 0.5 ml in donor, 15 min)?
**A.** The value was 7.81%.

**Q.** And the “% Cumulative Permeability (n = 3) 20 min” value (TR146 buccal cell line [6]; Famotidine […], 0.5 ml in donor, 20 min)?
**A.** The value was 11.76%.

**Q.** What about the “% Cumulative Permeability (n = 3) 30 min” value (TR146 buccal cell line [6]; Famotidine […], 0.5 ml in donor, 30 min) of the same compound?
**A.** The value was 19.98%.

**Q.** What about the Calculated % ionised ([8]; Famotidine at sample pH) of the same compound?
**A.** Its Calculated % ionised is 1.53%.

**Q.** And the Calculated % unionised ([8]; Famotidine at sample pH)?
**A.** Its Calculated % unionised is 98.47%.

**Q.** Which results are given for Sorbitan monooleate [Span 80]?
**A.** effect on Piroxicam permeability vs control (TR146 buccal cell line [2]; [11]): reduce the Piroxicam permeability significantly; fold increase in Famotidine permeability vs control (TR146 buccal cell line [6]; 1:1 molar ratio, time not stated): 2 fold

**Q.** With `CCCCCCCCCC(=O)O` [capric acid, Capric acid] as the compound, how does the “effect on Piroxicam permeability vs control” value (TR146 buccal cell line [2]; [11]) read?
**A.** Its value is “significantly reduced”.

**Q.** For `CN1C(C(=O)Nc2ccccn2)=C(O)c2ccccc2S1(=O)=O` [Piroxicam], which pKa [1] is on record?
**A.** Its pKa is 5.1.

**Q.** And the water solubility [1]?
**A.** Its water solubility is 143 µg/mL (≈ 432 µM).

**Q.** For `CC(C)NCC(O)COc1ccc(CC(N)=O)cc1` (stereo not shown) [Sample 1ATL, Atenolol], which pH ([7]; Atenolol 1.74 mg/ml binary mixes in distilled water, ^a after 0.1M NaOH) is on record?
**A.** Its pH is 10.58.

**Q.** What about the pH ([7]; measured pH of Atenolol (1.74 mg/ml)/permeation agent mixture in distilled water) of the same compound?
**A.** The pH was 10.58.

**Q.** What about the “% ionised” value ([8]; Atenolol at sample pH) of the same compound?
**A.** Its value is 9.48%.

**Q.** And the “% unionised” value ([8]; Atenolol at sample pH)?
**A.** The value was 90.52%.

**Q.** With `COc1ccccc1OCCNCC(O)COc1cccc2[nH]c3ccccc3c12` (stereo not shown) [Sample 1CAV, Carvedilol] as the compound, how does the “% Cumulative Permeability (n = 3) 1 min” value (TR146 buccal cell line [10]; 1 min) read?
**A.** Its value is 0.02%.

**Q.** What about the “% Cumulative Permeability (n = 3) 2 min” value (TR146 buccal cell line [10]; 2 min) of the same compound?
**A.** Its value is 0.03%.

**Q.** What about the “% Cumulative Permeability (n = 3) 5 min” value (TR146 buccal cell line [10]; 5 min) of the same compound?
**A.** The value was 0.03%.

**Q.** What about the “% Cumulative Permeability (n = 3) 15 min” value (TR146 buccal cell line [10]; 15 min) of the same compound?
**A.** Its value is 0.10%.

**Q.** And the “% Cumulative Permeability (n = 3) 20 min” value (TR146 buccal cell line [10]; 20 min)?
**A.** Its value is 0.13%.

**Q.** What about the “% Cumulative Permeability (n = 3) 30 min” value (TR146 buccal cell line [10]; 30 min) of the same compound?
**A.** The value was 0.18%.

**Q.** What about the pH ([7]; Carvedilol 1.74 mg/ml binary mixes in water, ^a after 0.1M NaOH, ^b after 0.1M HCL) of the same compound?
**A.** The pH was 7.

**Q.** What about the Calculated % ionised ([8]; Carvedilol at sample pH) of the same compound?
**A.** Its Calculated % ionised is 86.32%.

**Q.** What about the Calculated % unionised ([8]; Carvedilol at sample pH) of the same compound?
**A.** Its Calculated % unionised is 13.68%.
